Here are results for one compound from patent publication US20220218715A1, “NOVEL USE OF PYRROLO-PYRIDINE DERIVATIVE COMPOUND FOR PREVENTION AND/OR TREATMENT OF CANCER” (VORONOI CO., LTD., priority 2019, published 2022).

Broadly, the inhibition is the drop in the measured response relative to a control, in per cent. A lower inhibition goes with little suppression.

SMILES strings stand for the structures.

The test system of one assay is H1975 cell line. Description: Lung cancer cell colony formation inhibition. The format is cell-based. The following applies: concomitant treatment with Gefitinib or Osimertinib, vs single treatment or Harmine, from 10 days, FIG. 1. An excerpt: Specifically, the H1975 cell line was purchased from the ATCC (American Type Culture Collection, and RPMI-1640 with 10% FBS and 1% penicillin streptomycin was used.
(§1) The remaining colony-forming cells were fixed with methanol (1%) and formaldehyde (1%), then dyed with 0.5% crystal violet before photographing each well.

The next assay relates to MC38 colon cancer. Description: Anticancer effect in MC38 colon cancer transplant mouse model. The format is in vivo, female C57BL/6 mouse. Here is the method: (§2) The 3LL cells were cultured in Hams F10:L15=3:7 culture medium, the EMT-6 cells were cultured in Waymouth's MB 752/1 culture medium, and the MC38 cells were cultured in a DMEM culture medium with 10% FBS and 1% penicillin streptomycin, at 37° C. in a 5% CO2 humidified cell culture incubator.
(§3) The mouse PD-1 antibody (BE-0146), PD-L1 antibody (BE-0101), and CTLA-4 antibody (BE-0131) were purchased from BioXcell.
(§4) All animal tests were carried out through WuXi AppTec.

In a further assay the test system is 3LL lung cancer. Description: Anticancer effect in 3LL lung cancer transplant mouse model. The format is in vivo, female C57BL/6 mouse. The procedure:
as §2, §3, §4

A further assay has as its system PC-9 cell line. Description: Lung cancer cell colony formation inhibition. The format is cell-based, human. Conditions: concomitant treatment with Gefitinib or Osimertinib, vs single treatment or Harmine, from 10 days, FIG. 1.
Text: Specifically, the PC-9 cell line was purchased from the ECACC (European Collection of Authenticated Cell Cultures), and RPMI-1640 with 10% FBS and 1% penicillin streptomycin was used. PC-9GR cells cultured with slow and sustained exposure to Gefitinib (manufactured by Selleckchem) were serially cultured with 1 μmol/L Gefitinib.
as §1

A further assay concerns PC-9 lung cancer cells. Description: Anticancer effect in mouse model with PC-9 lung cancer cells. The format is in vivo, Balb/c Nude Mice. Conditions: PC-9 model. The procedure:
(§5) The PC-9 cell line was purchased from NanJing Cobioer Biological Technology Co., Ltd. Cells were kept in RPMI-1640 containing 10% FBS, and cultured in a 37° C. humidified cell culture incubator at 5% C2. All animal experiments were carried out according to the Animal Use and Management Guidelines of Shanghai Medicilon Inc. Under sterile conditions, 2×10^6 PC-9 tumor cells (0.1 mL, cell:Matrigel®=1:1) was administered to the right waist of each animal by S.C. administration. Tumor size and animal body weight were measured twice weekly, and clinical symptoms were recorded daily. The mice will be administered individually according to most recent body weight. The tumors were measured using calipers using two measurements, length (a) and width (b). The volume of the tumors was calculated individually as follows, from the two measured diameters of the tumors: tumor volume (mm^3)=(a×b^2)/2.

Assay [1] has as its system Ba/F3 EGFR L858R/T790M/C797S cells. Description: Cell growth inhibition, celltiterglo. The format is cell-based. The following applies: 72 hours, concomitant use with Osimertinib, compared with same amount of Harmine, FIG. 8. The procedure:
The cells were treated for 72 hours using a serially diluted compound. The cell activity inhibition results for the compounds were measured using celltiterglo.
In general terms: ATP-based viability assays read luminescence as a measure of living cells.

Assay [2] has as its system NCI-H1975 lung cancer cells. Description: Anticancer effect in mouse model with NCI-H1975 lung cancer cells. The format is in vivo, Balb/c Nude Mice. Here is the method:
as §5, with “NCI-H1975” for “PC-9”, “the Institute of Biochemistry and Cell Biology (Shanghai Institutes for” for “NanJing Cobioer”, “Sciences, CAS).” for “Technology Co., Ltd.”, “CO2.” for “C2.”, “Under sterile conditions, 2×10^6 PC-9 tumor cells (0.1 mL, cell:Matrigel®=1:1) was administered to the right waist of each animal by S.C. administration.” left out

In a further assay the test system is CAL-27. Description: EGFR expression after treatment, western blot or phosphoarray. The format is cell-based. The following applies: FIG. 7. The procedure:
For the Ba/F3 EGFR L858R/T790M/C797S cell line, Ba/F3 naive cells purchased from DSMZ were transfected with EGFR L858R/T790M/C797S […] DNA using lipofectamine, and a cell line selected using 1 μg/ml puromycin for 2 weeks was used. Here, the culture medium used was RPMI-1640 with 10% FBS and 1% penicillin streptomycin. The NCI-H2228 and CAL-27 cell lines were purchased from ATCC, and for culturing RPMI-1640 with 10% FBS and 1% penicillin streptomycin was used for NCI-H2228, while for CAL-27 DMEM with 10% FBS and 1% penicillin streptomycin was used.
As needed, culturing was performed for 1 hour with Cyclohexamine at 30 μg/mL concentration, followed by 15 minutes EGF treatment at a concentration of 100 ng/mL. For the phosphoarray experiment, DYRK1a siRNA was reacted with HEK293T cells for 48 hours at 30 nM concentration, confirming inhibition of DYRK1a expression in the cells. These were used as the control for the main experiment.

The target in another assay is T1, PHKG1 (Homo sapiens, UniProt Q16816).
T1 construct: purchased DiscoverX
T1 sequence (Q16816 whole entry): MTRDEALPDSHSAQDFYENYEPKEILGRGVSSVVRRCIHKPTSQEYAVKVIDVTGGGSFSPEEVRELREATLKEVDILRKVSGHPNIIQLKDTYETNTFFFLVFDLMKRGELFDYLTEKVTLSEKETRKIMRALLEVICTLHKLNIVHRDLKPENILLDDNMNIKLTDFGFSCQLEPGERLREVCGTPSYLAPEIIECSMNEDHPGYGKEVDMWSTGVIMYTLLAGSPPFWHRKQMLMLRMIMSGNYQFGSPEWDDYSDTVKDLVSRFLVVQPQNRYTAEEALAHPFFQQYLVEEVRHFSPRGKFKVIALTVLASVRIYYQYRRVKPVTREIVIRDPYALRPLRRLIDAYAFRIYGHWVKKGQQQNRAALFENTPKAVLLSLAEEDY
Description: scanMAX Kinase analysis panel (DiscoverX). The format is binding. The following applies: 1 μM in DMSO. The text has this:
(§6) [(Example Compound−Positive Control)/(Negative Control−Positive Control)×100]

The target of a further assay is T2, JNK2 (Homo sapiens, UniProt P45984).
T2 construct: purchased DiscoverX scanMAX Kinase analysis panel
T2 sequence (P45984 whole entry): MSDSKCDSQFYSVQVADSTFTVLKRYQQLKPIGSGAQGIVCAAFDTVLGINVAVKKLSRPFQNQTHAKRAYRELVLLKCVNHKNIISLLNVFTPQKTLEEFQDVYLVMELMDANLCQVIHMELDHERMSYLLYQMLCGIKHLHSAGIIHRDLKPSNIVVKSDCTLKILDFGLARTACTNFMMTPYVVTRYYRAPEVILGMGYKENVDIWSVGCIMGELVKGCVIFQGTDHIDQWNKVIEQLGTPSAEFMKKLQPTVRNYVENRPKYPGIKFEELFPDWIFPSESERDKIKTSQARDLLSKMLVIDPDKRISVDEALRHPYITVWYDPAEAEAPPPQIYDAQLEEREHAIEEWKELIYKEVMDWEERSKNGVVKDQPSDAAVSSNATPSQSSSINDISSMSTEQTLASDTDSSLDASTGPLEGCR
Description: scanMAX Kinase analysis panel (DiscoverX). Conditions: 1 μM in DMSO. The format is binding.
Text: as §6

The next assay concerns the target T3, JNK1 (Homo sapiens, UniProt P45983).
T3 construct: purchased DiscoverX
Description: scanMAX Kinase analysis panel (DiscoverX). The format is binding. Conditions: 1 μM in DMSO.
Text: as §6

For a further assay, the target named is T4, LRRK2 (G2019S) (Homo sapiens, UniProt Q5S007, G2019S).
T4 construct: purchased DiscoverX
T4 sequence (Q5S007 whole entry G2019S): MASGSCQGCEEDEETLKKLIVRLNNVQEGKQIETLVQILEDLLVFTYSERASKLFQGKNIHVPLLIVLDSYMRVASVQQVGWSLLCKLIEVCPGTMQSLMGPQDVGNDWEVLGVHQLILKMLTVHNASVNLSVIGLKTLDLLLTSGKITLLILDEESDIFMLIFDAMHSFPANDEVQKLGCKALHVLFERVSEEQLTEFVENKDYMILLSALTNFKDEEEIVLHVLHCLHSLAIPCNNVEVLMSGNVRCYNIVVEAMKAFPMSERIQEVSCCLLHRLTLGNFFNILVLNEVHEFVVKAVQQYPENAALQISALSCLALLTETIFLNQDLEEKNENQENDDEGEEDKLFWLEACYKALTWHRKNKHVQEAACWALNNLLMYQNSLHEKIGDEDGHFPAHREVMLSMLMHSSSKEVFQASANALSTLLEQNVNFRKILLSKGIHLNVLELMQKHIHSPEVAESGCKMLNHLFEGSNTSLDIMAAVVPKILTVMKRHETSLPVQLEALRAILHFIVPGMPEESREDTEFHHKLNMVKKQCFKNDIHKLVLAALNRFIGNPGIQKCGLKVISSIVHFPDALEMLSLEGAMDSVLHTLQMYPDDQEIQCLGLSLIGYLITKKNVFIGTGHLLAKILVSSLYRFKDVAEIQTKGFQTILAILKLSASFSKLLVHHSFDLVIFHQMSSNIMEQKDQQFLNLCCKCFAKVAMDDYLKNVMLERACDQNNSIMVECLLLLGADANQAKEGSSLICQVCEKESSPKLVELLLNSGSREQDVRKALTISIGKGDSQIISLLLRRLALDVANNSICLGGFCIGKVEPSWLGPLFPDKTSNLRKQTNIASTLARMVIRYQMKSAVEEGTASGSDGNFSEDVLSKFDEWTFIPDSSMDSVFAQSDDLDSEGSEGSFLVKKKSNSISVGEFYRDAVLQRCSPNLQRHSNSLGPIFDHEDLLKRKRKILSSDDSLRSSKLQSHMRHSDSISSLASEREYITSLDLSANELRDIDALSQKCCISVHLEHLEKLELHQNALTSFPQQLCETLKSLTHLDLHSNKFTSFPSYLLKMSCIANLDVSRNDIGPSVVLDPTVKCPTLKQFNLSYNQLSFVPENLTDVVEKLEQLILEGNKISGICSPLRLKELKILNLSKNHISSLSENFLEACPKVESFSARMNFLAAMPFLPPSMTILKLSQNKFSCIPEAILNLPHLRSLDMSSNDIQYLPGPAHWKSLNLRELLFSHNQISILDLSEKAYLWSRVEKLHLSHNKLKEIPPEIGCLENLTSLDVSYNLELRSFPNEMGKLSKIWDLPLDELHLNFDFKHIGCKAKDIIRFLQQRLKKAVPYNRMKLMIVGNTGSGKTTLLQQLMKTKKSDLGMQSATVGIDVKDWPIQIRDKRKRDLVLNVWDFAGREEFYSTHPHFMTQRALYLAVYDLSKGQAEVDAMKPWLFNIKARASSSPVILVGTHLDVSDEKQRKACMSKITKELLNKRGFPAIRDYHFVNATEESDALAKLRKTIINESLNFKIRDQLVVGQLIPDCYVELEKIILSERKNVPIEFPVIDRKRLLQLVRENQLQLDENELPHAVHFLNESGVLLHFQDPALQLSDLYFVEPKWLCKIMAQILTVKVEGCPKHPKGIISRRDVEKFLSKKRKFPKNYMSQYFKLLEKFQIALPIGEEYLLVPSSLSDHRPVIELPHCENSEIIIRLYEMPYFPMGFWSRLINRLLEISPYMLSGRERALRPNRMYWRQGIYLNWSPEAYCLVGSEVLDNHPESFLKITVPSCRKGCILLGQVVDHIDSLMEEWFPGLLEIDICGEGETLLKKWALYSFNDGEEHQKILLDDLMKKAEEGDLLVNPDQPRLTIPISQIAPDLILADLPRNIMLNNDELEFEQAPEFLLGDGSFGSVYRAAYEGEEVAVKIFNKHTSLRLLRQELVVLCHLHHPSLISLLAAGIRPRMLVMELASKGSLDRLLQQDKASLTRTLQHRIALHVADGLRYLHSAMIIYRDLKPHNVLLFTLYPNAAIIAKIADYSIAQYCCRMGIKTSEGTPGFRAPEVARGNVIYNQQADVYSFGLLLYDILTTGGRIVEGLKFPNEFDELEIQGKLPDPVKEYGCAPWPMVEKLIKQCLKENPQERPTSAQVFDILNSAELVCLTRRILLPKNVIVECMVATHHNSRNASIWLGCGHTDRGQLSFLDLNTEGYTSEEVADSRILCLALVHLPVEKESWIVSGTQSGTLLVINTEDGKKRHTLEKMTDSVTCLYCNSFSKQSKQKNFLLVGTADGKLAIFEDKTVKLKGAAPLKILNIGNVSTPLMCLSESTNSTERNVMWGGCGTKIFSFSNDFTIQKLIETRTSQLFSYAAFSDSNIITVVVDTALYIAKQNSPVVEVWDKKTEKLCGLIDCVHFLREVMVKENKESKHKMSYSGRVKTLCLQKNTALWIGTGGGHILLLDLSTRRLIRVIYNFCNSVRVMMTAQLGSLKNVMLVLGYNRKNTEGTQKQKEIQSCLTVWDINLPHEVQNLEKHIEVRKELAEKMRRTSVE
Description: scanMAX Kinase analysis panel (DiscoverX). The format is binding. The following applies: 1 μM in DMSO.
Text: as §6

Another assay has as its target T5, HUNK (Homo sapiens, UniProt P57058).
T5 construct: purchased DiscoverX scanMAX Kinase analysis panel
Description: scanMAX Kinase analysis panel (DiscoverX). The format is binding. The following applies: 1 μM in DMSO.
Text: as §6

The target in another assay is T6, STK39 (Homo sapiens, UniProt Q9UEW8).
T6 construct: purchased DiscoverX scanMAX Kinase analysis panel
Description: scanMAX Kinase analysis panel (DiscoverX). The format is binding. Conditions: 1 μM in DMSO.
Text: as §6

For the next assay, the target named is T7, PAK2 (Homo sapiens, UniProt Q13177).
T7 construct: purchased DiscoverX
T7 sequence (Q13177 whole entry): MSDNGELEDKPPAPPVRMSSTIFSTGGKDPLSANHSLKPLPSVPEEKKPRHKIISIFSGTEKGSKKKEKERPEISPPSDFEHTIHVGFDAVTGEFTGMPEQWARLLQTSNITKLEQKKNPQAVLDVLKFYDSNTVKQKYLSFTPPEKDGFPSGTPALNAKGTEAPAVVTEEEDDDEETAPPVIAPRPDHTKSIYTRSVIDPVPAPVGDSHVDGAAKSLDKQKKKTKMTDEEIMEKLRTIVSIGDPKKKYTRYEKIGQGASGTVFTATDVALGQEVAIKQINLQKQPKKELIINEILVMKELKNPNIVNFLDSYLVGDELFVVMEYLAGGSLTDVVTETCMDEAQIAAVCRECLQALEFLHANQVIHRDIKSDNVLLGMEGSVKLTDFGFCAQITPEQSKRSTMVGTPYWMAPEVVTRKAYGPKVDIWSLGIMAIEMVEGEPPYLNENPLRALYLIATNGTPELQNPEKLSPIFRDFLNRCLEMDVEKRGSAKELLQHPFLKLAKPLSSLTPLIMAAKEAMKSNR
Description: scanMAX Kinase analysis panel (DiscoverX). The following applies: 1 μM in DMSO. The format is binding.
Text: as §6

Where [3] appears, read: singular treatment, 45, 60, 75 mg/kg po BID, FIG. 6a.

T5 sequence (P57058 whole entry): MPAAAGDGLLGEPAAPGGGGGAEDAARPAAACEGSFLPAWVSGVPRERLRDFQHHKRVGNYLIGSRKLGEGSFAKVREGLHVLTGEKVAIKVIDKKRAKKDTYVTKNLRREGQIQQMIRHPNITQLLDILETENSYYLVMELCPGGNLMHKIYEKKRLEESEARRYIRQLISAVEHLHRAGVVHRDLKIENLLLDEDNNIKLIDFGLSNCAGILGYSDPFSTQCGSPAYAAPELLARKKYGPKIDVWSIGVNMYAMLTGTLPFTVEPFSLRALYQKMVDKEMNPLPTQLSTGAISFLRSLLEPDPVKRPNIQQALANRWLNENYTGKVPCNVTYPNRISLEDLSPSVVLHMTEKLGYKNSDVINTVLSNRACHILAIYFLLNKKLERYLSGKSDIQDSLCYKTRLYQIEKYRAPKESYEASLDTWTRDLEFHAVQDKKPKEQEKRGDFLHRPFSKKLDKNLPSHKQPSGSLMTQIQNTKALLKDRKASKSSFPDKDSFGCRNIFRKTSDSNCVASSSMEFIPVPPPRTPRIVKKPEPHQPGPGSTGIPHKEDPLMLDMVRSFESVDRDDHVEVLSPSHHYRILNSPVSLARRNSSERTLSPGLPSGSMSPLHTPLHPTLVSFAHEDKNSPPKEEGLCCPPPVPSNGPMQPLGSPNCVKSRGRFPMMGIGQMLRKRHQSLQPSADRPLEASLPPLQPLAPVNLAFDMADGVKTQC
T3 sequence (P45983 whole entry): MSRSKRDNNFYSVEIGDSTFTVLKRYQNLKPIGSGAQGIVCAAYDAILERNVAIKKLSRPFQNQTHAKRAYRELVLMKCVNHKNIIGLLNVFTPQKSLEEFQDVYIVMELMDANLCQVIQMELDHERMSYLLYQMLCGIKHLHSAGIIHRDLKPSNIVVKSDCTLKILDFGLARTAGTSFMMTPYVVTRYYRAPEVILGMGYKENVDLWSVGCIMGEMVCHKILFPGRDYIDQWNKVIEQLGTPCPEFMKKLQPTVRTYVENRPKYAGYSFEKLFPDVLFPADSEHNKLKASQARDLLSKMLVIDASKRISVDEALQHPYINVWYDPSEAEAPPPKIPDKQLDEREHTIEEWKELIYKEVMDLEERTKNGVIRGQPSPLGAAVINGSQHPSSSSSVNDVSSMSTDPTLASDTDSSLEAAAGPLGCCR

As for `CCNc1cc(Nc2ccc(C(=O)N3CCC(N4CCOCC4)CC3)cc2OC)nc2[nH]cc(C(F)(F)F)c12` [Compound 1, (4-((4-(ethylamino)-3-(trifluoromethyl)-1H-pyrrolo[2,3-b]pyridine-6-yl)amino)-3-methoxyphenyl) (4-morpholinopiperidine-1-yl)methanone], the colony formation inhibition entry with H1975 cell line and in the assay with PC-9 cell line was “substantially inhibit formation of lung cancer cell colonies” throughout. Also, the tumor suppression effect entry is given as “improved concomitant effect” in the assay with MC38 colon cancer (concomitant with PD-1, PD-L1 and CTLA-4 antibodies 10 mg/kg IP BIW, FIG. 6c); “insignificant tumor suppression effect” in the assay with MC38 colon cancer (setting [3]); “improved concomitant effect” in the assay with 3LL lung cancer (concomitant with PD-1, PD-L1 and CTLA-4 antibodies 10 mg/kg IP BIW, FIG. 6b); “insignificant tumor suppression effect” in the assay with 3LL lung cancer (setting [3]). The anticancer effect result is “substantially reduced lung cancer (PC-9) cells” with PC-9 lung cancer cells (Compound 1 20 or 40 mg/kg concomitant with Gefitinib 10 mg/kg, PO QD, vs Gefitinib alone, FIG. 4); “substantially reduced lung cancer (PC-9) cells” in the assay with PC-9 lung cancer cells (Compound 1 20 or 40 mg/kg concomitant with Osimertinib 3 mg/kg, PO QD, vs Osimertinib alone, FIG. 3); “no anticancer effect” in the assay with PC-9 lung cancer cells (singular treatment with Compound 1, 40 mg/kg PO QD); “substantially reduced lung cancer (NCI-H1975) cells” in assay [2] (Compound 1 40 or 60 mg/kg concomitant with Osimertinib 3.5 mg/kg, PO QD, vs Osimertinib alone, FIG. 5); “no anticancer effect” in [2] (singular treatment with Compound 1, 60 mg/kg PO QD). Also, in assay [1], the “cell growth inhibition effect” value is listed as “improved cell growth inhibition effect compared to treatment with the same amount of Harmine”. Also, the EGFR expression entry in the assay with CAL-27 was “reduced EGFR expression”. Also, the “p-EGFR (Y-1086) expression” value with CAL-27 (phosphoarray, 2 μM, 48 hours) was “Reduction in expression”. In addition, the inhibition at 1 µM against PHKG1 is at least 59%; at JNK2, 40 to 59%; against JNK1, at least 59%; on LRRK2 (G2019S) it was at least 59%; against HUNK it was 40 to 59%; at STK39, 40 to 59%. The inhibition at 1 µM against PAK2 was at least 59%.
